Reference: publication PMC10783034, “Pharmacokinetic and pharmacodynamic evaluation of the atypical tetracyclines chelocardin and amidochelocardin in murine infection models” (Microbiology Spectrum, 2023)
In brackets after ≈: the same amount, converted by molar mass.

Key:
E. coli ATCC 25922 [1] = test: Neutropenic thigh infection model in CD-1 mice; format: in vivo; conditions: 20 mg/kg IV BID, positive control
Protocol: (§1) The inoculum for K. pneumoniae ATCC 43816 was prepared freshly as described previously to yield 1 × 10^4 cfu/mL ([56]). The inoculum of the E. coli ATCC 25922 was diluted from a frozen stock to 1.4 × 10^6 cfu/ml. N = 6 animals per group were used for both tested strains. N = 4 mice were used in the pre-treatment group in the neutropenic thigh infection model with E. coli ATCC 25922. Mice were rendered neutropenic by administration of 150 mg/kg and 100 mg/kg cyclophosphamide intraperitoneally on days −4 and −1, respectively. On the day of infection (day 0), mice received 30 µL of the inoculum of K. pneumoniae ATCC 43816 into each lateral thigh under isoflurane anesthesia, corresponding to 6 × 10^2 cfu/mouse. In the model with E. coli, mice received 50 µL of the inoculum of E. coli into each lateral thigh under isoflurane anesthesia, corresponding to 1.4 × 10^5 cfu/mouse. Whilst still under anesthesia, mice were administered a dose of Buprenorphine (0.03 mg/kg) subcutaneously for pain relief. 24 hours after infection, mice were euthanized by slowly introducing CO2 and cardiac puncture to remove blood from the heart immediately after death. Kidneys and thighs were aseptically removed. 24 hours after infection, the clinical score of every individual animal was assessed. Clinical scoring comprises the assessment of different parameters such as spontaneous behavior, posture, appearance, and provoked behavior. Each parameter was assessed with a score of 0 to 3 (ascending severity from 0 to 3). The humane endpoint was reached when the clinical score of a single parameter was 3 or if the total clinical score was higher than 8. Whole blood was collected into Eppendorf tubes coated with 0.5 M EDTA. Organs were homogenized in 0.9% NaCl solution. Organs and blood were plated onto agar plates in duplicates in serial dilutions and incubated at 37°C for 24 hours. 25 µL per dilution of the homogenized organ was spotted onto agar plates. In addition, 1 mL of homogenized organ is streaked onto an agar plate in technical duplicates. If no single colony is observed then, this would result in 0 cfu/mL. Thus, the threshold of detection is 0 log10 cfu/g. The groups used in the different neutropenic thigh infection models are found in Tables S4 through S7. In brief, levofloxacin with 3.3 mg/kg TID IP was used as a positive control antibiotic for the K. pneumoniae model, whereas ciprofloxacin with 20 mg/kg BID IV was used for the E. coli model, respectively. The rationale for TID dosing was based on the PK/PD index of fAUC/MIC for fluoroquinolones ([57] [–] [59]). […] Moreover, CHD and CDCHD were administered at 10 mg/kg SC QID (t = 1,3,5,7 hours), 15 mg/kg SC TID (t = 1,4,7 hours), and 50 mg/kg SC QD (t = 1 hour) (Tables S5 and S6). In the E. coli neutropenic thigh infection model, CHD and CDCHD, respectively, were administered at 50 mg/kg IV QD (t = 1 hour) and 15 mg/kg IV BID (t = 1 and 6 hours) (Table S7).
(§2) For the neutropenic thigh infection model with E. coli ATCC 25922, the thighs were regarded as two independent infection sites throughout the experiment. For statistical analysis, individual thighs (left and right) were treated as separate samples although these were not completely independent values. For the neutropenic thigh infection model with K. pneumoniae ATCC 43816, the individual thighs (left and right) were treated as one sample. For the efficacy models, the non-parametric Kruskal-Wallis test was used with GraphPad Prism 9.4.1. For the ascending urinary tract infection model, an ordinary one-way ANOVA with Dunnett’s multiple comparison test was used with GraphPad Prism 9.4.1.

E. coli ATCC 25922 [2] = test: MIC determination; format: cell-based; conditions: Escherichia coli, ATCC25922; MHB medium; read-out: MIC
Protocol: (§3) The assay was conducted as described previously ([54]) with the following modifications. The MIC was tested against the K. pneumoniae strain ATCC 43816 in an MHB (not cation-adjusted) medium. CHD and CDCHD were tested in concentrations ranging from 0.078 to 10 µg/mL. Moreover, the MIC was determined for the following strains: K. pneumoniae DSM-30104, E. faecium DSM-20477, S. aureus DSM-346, P. aeruginosa DSM-11128, A. baumannii DSM-30008, E. aerogenes DSM-30053, E. coli ATCC 25922, and E. coli C175-94. All strains were grown in MHB medium, except for E. faecium, which was grown in TSB. CHD, epi-CDH, and CDCHD were tested in concentrations ranging from 0.125 to 64 µg/mL as described previously ([19]).

[3] = Histopathological analysis of kidneys and bladder in the ascending urinary tract infection model (satellite groups); format: in vivo, mice; parameters: histopathological score Papilla / histopathological score Bladder: scale not given here
Protocol: (§4) The model was conducted as described previously ([27], [60]). In brief, n = 21 animals were used per group in the main study, and n = 3 animals per group in satellite groups for histopathological analysis. Three days before the start of the study and during the study, mice had free access to 5% glucose as drinking water. Fresh overnight colonies of E. coli from a 5% horse blood agar plate were suspended in PBS pH 7.4 to approximately 10^9 cfu/mL. Approximately 1 hour before inoculation, mice were treated orally with […] Nurofen (20 mg ibuprofen/mL corresponding to approximately 30 mg/kg) as a pain relief. Urine was removed from the bladder by gently pressing the abdomen and mice were anaesthetized with 0.15 mL Zoletil mix SC. Thereafter, the mice were inoculated. A syringe with a catheter, containing the bacterial suspension was inserted via the urethra into the bladder and 50 µL of the inoculum was slowly injected into the bladder. Hereafter, the mouse was placed in the cage and kept in a warming cabinet until fully awake (approximately 4 hours). The mice were treated with CHD (12 mg/kg SC BID), CDCHD (12 mg/kg SC BID), gentamicin (100 mg/kg SC BID), or vehicle BID (2nd dose was administered approximately 6 hours after the 1st dose on each day) on day 1, that is, first dose around 24 hours post-infection, and day 2 post-inoculation. The mice were observed during the study and scored based on their behavior and clinical signs. Clinical scoring comprised assessment of piloerection in the skin, activity (movement, curiosity), and appearance of eyes. The scoring range comprised 0–4. In our model, a maximum score of 1; thus, only mild discomfort was observed. On day 3 post-inoculation and after sampling urine, mice were euthanized by cervical dislocation, and bladder and kidneys were removed from 21 mice in each treatment group aseptically for cfu determination. The bladder and kidneys were stored at −80°C and later homogenized in 0.5 or 1 mL saline, respectively. Colony counts of urine were determined immediately. From the three additional mice in each treatment group (satellite groups), urine and plasma were sampled and frozen at −80°C, and bladders, kidneys, and liver were collected in 4% buffered formalin. Cfu was determined in urine samples within 2–3 hours after sampling. Frozen organs were thawed and homogenized with steel beads using a tissue lyser. All samples, urine, kidney, and bladder, were 10-fold diluted in saline and 20 µL spots were applied on blue agar plates in duplicates. In addition, undiluted samples of urine (2–100 μL depending on the available amount of urine) were spread on a separate agar plate to determine the colony counts at the lowest possible detection level. All agar plates were incubated for 18–22 hours at 35°C in ambient air.
Approximately 3 µm thick sections of formalin-fixed, paraffin-embedded samples of liver and kidney were analyzed blinded, and randomized to the experimental groups by a trained veterinarian. […] Kidneys were analyzed for changes in the glomeruli (not found), tubular dilation (1 = mild or up to 20% of tubuli affected, 2 = moderate or 25-40% of tubuli affected, 3 = severe 50% or more), and inflammatory infiltrate in the pelvis (1 = mild, 2 = moderate, 3 = severe).

E. coli C175-94 [4] = test: Ascending urinary tract infection model in OF-1 mice; format: in vivo; conditions: CHD/CDCHD 12 mg/kg SC BID, gentamicin 100 mg/kg SC BID
Protocol: as §4, §2

E. coli C175-94 [5] = test: MIC determination; format: cell-based; conditions: Escherichia coli, C17594; MHB medium; read-out: MIC
Protocol: as §3

K. pneumoniae ATCC 43816 [6] = test: Neutropenic thigh infection model in CD-1 mice; format: in vivo; conditions: levofloxacin 3.3 mg/kg IP TID
Protocol: as §1, §2

K. pneumoniae ATCC 43816 [7] = test: MIC determination; format: cell-based; conditions: Klebsiella pneumoniae, ATCC43816; MHB (not cation-adjusted) medium; read-out: MIC
Protocol: as §3

[8] = infected mice, CHD/CDCHD 12 mg/kg SC BID, gentamicin 100 mg/kg SC BID
[9] = 24 hours after infection, CHD/CDCHD 10 mg/kg SC QD or BID, vs vehicle

O=C(O)c1cn(C2CC2)c2cc(N3CCNCC3)c(F)cc2c1=O [ciprofloxacin, reference compound]
bacterial burden in the thigh, compared with CHD and CDCHD (E. coli ATCC 25922 [1]): exerted a stronger effect
MIC (E. coli ATCC 25922 [2]): 0.008 µg/mL (≈ 0.0241 µM)

CNC(C)C1CCC(N)C(OC2C(N)CC(N)C(OC3OCC(C)(O)C(NC)C3O)C2O)O1 (stereo not drawn) [gentamicin, reference compound]
histopathological score Bladder ([3]; animal No. 1): 1
histopathological score Bladder ([3]; animal No. 2): 0
histopathological score Bladder ([3]; animal No. 3): 1
histopathological findings in bladder [3, 8]: mild, focal, submucosal inflammatory aggregates
histopathological findings in kidneys [3, 8]: only a mild tubulus dilation without inflammatory cells in the renal pelvis
animals with sterile kidneys (E. coli C175-94 [4]; control animals 23.8%): 95.2%
bacterial burden in kidneys (E. coli C175-94 [4]; day 3, vs vehicle): strong and significant reduction
bacterial burden in the bladder (E. coli C175-94 [4]; day 3, vs vehicle): The same was observed for gentamicin
MIC (E. coli C175-94 [5]): 0.75 µg/mL (≈ 1.57 µM)

C[C@H]1COc2c(N3CCN(C)CC3)c(F)cc3c(=O)c(C(=O)O)cn1c23 [levofloxacin, reference compound]
bacterial burden in blood (K. pneumoniae ATCC 43816 [6]; [9]): The same was found in blood
bacterial burden in the thigh (K. pneumoniae ATCC 43816 [6]; [9]): A significant reduction of bacterial burden
bacterial burden in the kidney (K. pneumoniae ATCC 43816 [6]; higher-dose studies: 10 mg/kg SC QID, 15 mg/kg SC TID, 50 mg/kg SC QD): did not reduce bacterial burden with statistical significance
MIC (K. pneumoniae ATCC 43816 [7]): 0.08 µg/mL (≈ 0.221 µM)
